The source of these data is US9150537B2, “Bicyclic compound and use thereof for medical purposes” (ONO PHARMACEUTICAL CO., LTD., priority 2011, dated 2015).

A value given as a limit tells only on which side of the number the result lay.

Data set [1] has as its system male rabbit (NewZealandWhite). Nature of the data set: Assessment of ocular stimulating property (Draize score) in rabbit. To be noted: ocular instillation 30 μL, 1000 μg/mL, observed 0 to 8 hours (FIG. 1). The data set is classed as in vivo. The procedure: (§1) (2-2) Assessment of Ocular Stimulating Property and Aqueous Humor Protein Concentration
To one eye of a male rabbit (NewZealandWhite, 2.0 to 3.0 kg) was ocular-instilled 30 μL of the compound of Example 16 (1) which had been adjusted to 0.1% (w/v) with a base (containing citrate buffer pH 6.5, 0.5% polysorbate 80, 1% propylene glycol, 0.01% benzalkonium chloride), respectively. Thereafter, an aqueous humor in anterior chamber after 0, 1, 2, 4, 6 and 8 hours from ocular instillation was collected, and a protein concentration in the humor was measured. […]
Observation of the ocular general state was performed after 0, 1, 2, 4, 6 and 8 hours from ocular instillation, and visual remark of cornea, iris, and conjunctiva was observed according to determination criteria of the Draize method. A total of points of the resulting assessment points of each item (=A1×B1×5+A2×5+(A3+B3+C3)×2) was assessed as a Draize score. […]
(§2) Regarding any test compound, a dose of 1000 μg/mL was administered and action of each active body was assessed.

For data set [2], the system named is male rabbit (NewZealandWhite). Nature of the data set: Aqueous humor protein concentration in rabbit after ocular instillation. Particulars: ocular instillation 30 μL, 1000 μg/mL, 0 to 8 hours (FIG. 2). The data set is classed as in vivo. The procedure: as §1
To one eye of a male rabbit (NewZealandWhite, 2.0 to 3.0 kg) was ocular-instilled 30 μL of the compound of Example 16 (1) which had been adjusted to 0.1% (w/v) with a base (containing citrate buffer pH 6.5, 0.5% polysorbate 80, 1% propylene glycol, 0.01% benzalkonium chloride), respectively. Thereafter, an aqueous humor in anterior chamber after 0, 1, 2, 4, 6 and 8 hours from ocular instillation was collected, and a protein concentration in the humor was measured. As comparative compounds, the aforementioned methyl ester of the compound of Example 12 described in Patent Literature 2 (i.e. compound of Example 10 described in Patent Literature 2) (hereinafter, abbreviated as Comparative Compound C in some cases) and the aforementioned methyl ester of the Comparative Compound B (i.e. optically active body (2S isomer) of the compound of Example 1 (F) described in Patent Literature 1) (hereinafter, abbreviated as Compound D in some cases) were used.
as §2

Data set [3] deals with male monkey (crab-eating monkey). Nature of the data set: Intraocular pressure lowering action in monkey under consciousness. The data set is classed as in vivo. To be noted: conscious crab-eating monkey, ocular instillation 30 μL, 10 μg/mL Comparative Compound C, 30 μg/mL Example 16 (1). The procedure:
(2-3) Intraocular Pressure Lowering Action in Monkey Under Consciousness
To a left eye of a male monkey (crab-eating monkey) under consciousness was ocular instillation-administered 30 μL of a solution obtained by adjusting a test substance using the same base as that described above and, to a right eye was ocular instillation-administered 30 μL of a solution of only a base as a control, respectively. An intraocular pressure after administration was measured with time from administration initiation to after 24 hours. Upon measurement of an intraocular pressure, a crab-eating monkey was fixed on a monkey chair, and the monkey was anesthetized by ocular instillation-administering an ocular surface anesthetic (Benoxil eye drops 0.4% Santen Pharmaceutical Co., Ltd.). After mounting of a blepharostat (Handaya Co., Ltd.), an intraocular pressure of both eyes was measured (5 to 8 examples per group) using a pneumatic applanation flat tonometer (Model 30 Classic, REICHERT). A difference in an intraocular pressure value between control eyes and eyes to which a test substance had been administered, was calculated as an intraocular pressure lowering rate using the following equation, and sustainability of intraocular eye lowering action was assessed using a maximum intraocular pressure lowering rate during measurement and an intraocular pressure lowering rate after 24 hours. […]

The subject of a further data set is male dog (TOYO Beagle). The data set is described as follows: Intraocular pressure lowering action in dog after ocular instillation. The data set is classed as in vivo. Particulars: ocular instillation 30 μL, maximum among 2, 4, 6, 8, 24 hours, dose 30 μg/mL Example 16 (1), 50 μg/mL latanoprost. The procedure:
(2-1) Intraocular Pressure Lowering Action
To one eye of a male dog (TOYO Beagle) which had been sufficiently acclimated in advance was ocular-instilled 30 μL of the compound of Example 16 (1) which had been adjusted with a base (containing citrate buffer pH 6.5, 0.5% polysorbate 80, 1% propylene glycol, 0.01% benzalkonium chloride) to 0.003% (w/v), respectively. The other eye was not treated. As a positive control compound, latanoprost which is the known compound was used.
Thereafter, an ocular surface anesthetic (Benoxil eye drops 0.4%, Santen Pharmaceutical Co., Ltd.) was subjected to ocular instillation to locally anesthetize eyes, and an intraocular pressure of each test compound before ocular instillation and after 2, 4, 6, 8, and 24 hours from ocular instillation was measured. An intraocular pressure was measured using a pneumatic applanation flat tonometer (Model 30 Classic, REICHERT). An intraocular pressure lowering rate (%) was calculated by the following equation.

Another data set concerns the target T1, mouse EP2 receptor (Mus musculus, UniProt Q62053).
T1 construct: expressed in transfected cells; host or cells: CHO (EP2-CHO)
Nature of the data set: Measurement of EP2 agonist activity (cAMP concentration) in EP2-CHO cells. It counts as cell-based. To be noted: cAMP production, read-out: Agonist activity on various prostanoid receptors: EC50 value, EP2. An excerpt:
(§3) (1-1) Measurement of Agonist Activity on Various Mouse Prostanoid Receptors
(§4) Using CHO cells (FP-CHO, EP2-CHO, EP4-CHO and IP-CHO, respectively) in which various mouse prostanoid receptors were forcibly expressed, respectively, agonist activity of test compounds on various prostanoid receptors was studied employing an intracellular calcium concentration regarding FP, and an intracellular cyclic AMP (hereinafter, abbreviated as cAMP) production amount regarding IP, EP2 and EP4 as an index.
(§5) The test compound and a control substance (PGE2, PGF2α, and iroprost) were dissolved with dimethyl sulfoxide (DMSO) to prepare a 10 mmol/L solution. Regarding the prepared 10 mmol/L solution, upon use, the 10 mmol/L solution was thawed, stepwisely-diluted using DMSO, and diluted with a buffer solution for measurement or a buffer solution for measurement 2, which was subjected to an experiment.
(§6) Cells forcibly expressing various mouse prostanoid receptors were standing-cultured at 37° C. in the presence of 5% CO2 using an α-MEM medium (Sigma) (for culturing FP-CHO, EP2-CHO and EP4-CHO) containing inactivated (56° C., 30 minutes) 9.8 vol % dialysed-FBS (Invitrogen) and penicillin-streptomycin-glutamine (GIBCO-BRL), or nucleic acid-containing α-MEM (Sigma) (for culturing IP-CHO) containing inactivated (56° C., 30 minutes) 9.8 vol % dialysed-FBS (Invitrogen) and penicillin-streptomycin glutamine (Invitrogen). Subculturing was performed by the following method.
(§7) The medium was removed, and washed with a phosphate-buffered physiological saline not containing Ca^2+ and Mg^2+ once. A suitable amount of trypsin-EDTA (Invitrogen) was added, this was incubated at 37° C. for about 3 minutes, cells were peeled, and a medium having a volume which is 10-fold a volume of trypsin-EDTA was added to stop an enzymatic reaction. After cells were recovered (120 g) into a centrifuging tube, and centrifuged at room temperature for 3 minutes, the supernatant was removed. Cells were suspended in a suitable amount of a medium, and seeded in a culturing flask. […]
(In general: Changes in cAMP serve as a functional read-out for many G protein-coupled receptors.)

A further data set concerns the target T2, mouse FP receptor (Mus musculus, UniProt P43117).
T2 construct: expressed in transfected cells; host or cells: CHO (FP-CHO)
The data set is described as follows: Measurement of FP agonist activity (intracellular calcium concentration) in FP-CHO cells. It counts as cell-based. Particulars: read-out: Agonist activity on various prostanoid receptors: EC50 value, FP.
Excerpt: as §3, §4
(§8) The test compound and a control substance (PGE2, PGF2α, and iroprost) were dissolved with dimethyl sulfoxide (DMSO) to prepare a 10 mmol/L solution. Regarding the prepared 10 mmol/L solution, upon use, the 10 mmol/L solution was thawed, stepwisely-diluted using DMSO, and diluted with a buffer solution for measurement or a buffer solution for measurement 2, which was subjected to an experiment. […]
The 96-well UV plate was set in a fluorescent spectral photometer (FDSS-3000, Hamamatsu Photonics K.K.), and an intracellular calcium concentration was measured. […]
(Calcium assays in cells follow changes in intracellular calcium, usually with a dye or a luminescent sensor.)

A further data set deals with T3, mouse IP receptor (Mus musculus, UniProt P43252).
T3 construct: expressed in transfected cells; host or cells: CHO (IP-CHO)
The data set is described as follows: Measurement of IP agonist activity (cAMP concentration) in IP-CHO cells. The data set is classed as cell-based. To be noted: cAMP production, read-out: Agonist activity on various prostanoid receptors: EC50 value, IP.
Excerpt: as §3, §4, §8

A further data set concerns the target T4, mouse EP4 receptor (Mus musculus, UniProt P32240).
T4 construct: expressed in transfected cells; host or cells: CHO (EP4-CHO)
Nature of the data set: Measurement of EP4 agonist activity (cAMP concentration) in EP4-CHO cells. To be noted: cAMP production, read-out: Agonist activity on various prostanoid receptors: EC50 value, EP4. The data set is classed as cell-based.
Excerpt: as §3, §4, §5, §6, §7

T4 sequence (P32240 whole entry): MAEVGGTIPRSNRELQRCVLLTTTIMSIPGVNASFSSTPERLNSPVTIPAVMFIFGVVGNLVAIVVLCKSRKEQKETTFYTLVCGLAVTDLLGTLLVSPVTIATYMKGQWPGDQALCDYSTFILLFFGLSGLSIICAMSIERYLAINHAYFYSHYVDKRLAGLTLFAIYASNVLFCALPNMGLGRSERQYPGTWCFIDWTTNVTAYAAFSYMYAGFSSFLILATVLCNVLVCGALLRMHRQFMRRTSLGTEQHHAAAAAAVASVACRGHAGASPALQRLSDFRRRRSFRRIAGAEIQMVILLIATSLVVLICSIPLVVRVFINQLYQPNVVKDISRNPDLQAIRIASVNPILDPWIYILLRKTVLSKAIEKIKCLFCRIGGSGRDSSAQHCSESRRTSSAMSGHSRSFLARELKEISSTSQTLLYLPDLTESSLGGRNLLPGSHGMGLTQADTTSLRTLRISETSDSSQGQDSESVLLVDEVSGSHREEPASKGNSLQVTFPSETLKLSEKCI
T1 sequence (Q62053 whole entry): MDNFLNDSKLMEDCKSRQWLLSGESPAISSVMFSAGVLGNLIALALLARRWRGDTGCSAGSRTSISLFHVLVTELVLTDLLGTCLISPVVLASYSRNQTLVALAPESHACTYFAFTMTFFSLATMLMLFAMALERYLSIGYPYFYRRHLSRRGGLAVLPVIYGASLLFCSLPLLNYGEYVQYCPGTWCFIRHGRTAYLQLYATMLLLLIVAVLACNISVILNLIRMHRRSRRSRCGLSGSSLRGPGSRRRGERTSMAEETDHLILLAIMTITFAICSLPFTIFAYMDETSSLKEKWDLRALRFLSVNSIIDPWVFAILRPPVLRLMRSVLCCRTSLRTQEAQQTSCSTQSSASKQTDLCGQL
T2 sequence (P43117 whole entry): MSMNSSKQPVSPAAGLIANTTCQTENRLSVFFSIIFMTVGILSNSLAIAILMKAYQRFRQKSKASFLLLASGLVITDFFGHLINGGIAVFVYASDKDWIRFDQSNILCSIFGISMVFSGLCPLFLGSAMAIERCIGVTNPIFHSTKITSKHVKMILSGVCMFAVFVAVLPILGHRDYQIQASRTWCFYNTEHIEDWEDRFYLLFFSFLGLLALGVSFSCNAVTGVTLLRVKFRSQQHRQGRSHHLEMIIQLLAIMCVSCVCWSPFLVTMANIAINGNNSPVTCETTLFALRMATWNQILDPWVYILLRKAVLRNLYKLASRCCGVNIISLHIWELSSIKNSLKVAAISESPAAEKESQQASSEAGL
T3 sequence (P43252 whole entry): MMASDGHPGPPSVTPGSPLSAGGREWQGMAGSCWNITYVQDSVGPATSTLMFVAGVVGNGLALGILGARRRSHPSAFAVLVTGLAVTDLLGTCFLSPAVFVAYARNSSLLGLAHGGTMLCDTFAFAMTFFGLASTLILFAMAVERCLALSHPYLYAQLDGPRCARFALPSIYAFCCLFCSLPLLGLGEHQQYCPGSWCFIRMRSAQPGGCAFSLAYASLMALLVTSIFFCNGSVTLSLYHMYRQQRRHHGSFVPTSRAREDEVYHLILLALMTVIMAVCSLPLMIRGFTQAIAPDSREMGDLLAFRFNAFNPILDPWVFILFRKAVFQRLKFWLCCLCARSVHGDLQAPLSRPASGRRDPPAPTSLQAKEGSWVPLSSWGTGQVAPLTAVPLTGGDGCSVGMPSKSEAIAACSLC

Consider `CC(C)OC(=O)CCC[C@H]1CC[C@@H]2[C@@H](/C=C/[C@@H](O)COc3ccccc3)[C@H](O)C[C@@H]2S1` [Example 16 (1), 2-Propanyl 4-{(2S,4aR,5R,6R,7aS)-6-hydroxy-5-[(1E,3R)-3-hydroxy-4-phenoxy-1-buten-1-yl]octahydrocyclopenta[b]thiopyran-2-yl}butanoate], for which the “Classification of ocular stimulating property from maximum of the Draize score” value in data set [1] was “non-stimulating substance (A Draize score of 0 or more and 5 or less was a non-stimulating substance)”. The “Action on protein concentration in aqueous humor” value in data set [2] is reported as “no action of raising a protein concentration in an aqueous humor”. In addition, the “Intraocular pressure lowering rate after 24 hours” value in data set [3] (24 hours) is 23.1 ± 2.7%. Also, the “Maximum intraocular pressure lowering rate” value in data set [3] was found to be 25.3 ± 2.4%. The “Maximum of intraocular pressure lowering rate” value with male dog (TOYO Beagle) was 34.2%.
Usually EC50 stands for the concentration giving half of the maximal effect. As to `CCCCC[C@H](O)/C=C/[C@@H]1[C@H]2CC[C@H](CCCC(=O)O)S[C@H]2C[C@H]1O` [Comparative Compound B, 4-{(2S,4aR,5R,6R,7aS)-6-hydroxy-5-[(1E,3S)-3-hydroxy-1-octen-1-yl]octahydrocyclopenta[b]thiopyran-2-yl}butanoic acid, reference compound], the EC50 was determined as 22 nM at mouse EP2 receptor, 8.9 nM at mouse FP receptor, 890 nM at mouse IP receptor and 380 nM at mouse EP4 receptor.
Consider `O=C(O)CCC[C@H]1CC[C@@H]2[C@@H](/C=C/[C@@H](O)COc3ccccc3)[C@H](O)C[C@@H]2S1` [Example 15, 4-{(2S,4aR,5R,6R,7aS)-6-hydroxy-5-[(1E,3R)-3-hydroxy-4-phenoxy-1-buten-1-yl]octahydrocyclopenta[b]thiopyran-2-yl}butanoic acid], for which the EC50 at mouse EP2 receptor was over 100000 nM; at mouse FP receptor, 3.4 nM; on mouse IP receptor, 6100 nM; at mouse EP4 receptor it was over 100000 nM.
Regarding `O=C(O)CCC[C@H]1CC[C@@H]2[C@@H](/C=C/[C@@H](O)COc3ccccc3)[C@H](O)C[C@@H]2O1` [Comparative Compound A], the 50% effective concentration (EC50) on mouse EP2 receptor was over 100000 nM; at mouse EP4 receptor it was 6100 nM.
